Source: patent publication US20250034216A1, “STEREOSELECTIVE COVALENT LIGANDS FOR ONCOGENIC AND IMMUNOLOGICAL PROTEINS” (The Scripps Research Institute, priority 2021, published 2025)

Biological target: T1, WAPL_C1133 (Homo sapiens, UniProt Q7Z5K2)
T1 construct: endogenous in cells; host or cells: 22Rv1
T1 sequence (Q7Z5K2 1-1190): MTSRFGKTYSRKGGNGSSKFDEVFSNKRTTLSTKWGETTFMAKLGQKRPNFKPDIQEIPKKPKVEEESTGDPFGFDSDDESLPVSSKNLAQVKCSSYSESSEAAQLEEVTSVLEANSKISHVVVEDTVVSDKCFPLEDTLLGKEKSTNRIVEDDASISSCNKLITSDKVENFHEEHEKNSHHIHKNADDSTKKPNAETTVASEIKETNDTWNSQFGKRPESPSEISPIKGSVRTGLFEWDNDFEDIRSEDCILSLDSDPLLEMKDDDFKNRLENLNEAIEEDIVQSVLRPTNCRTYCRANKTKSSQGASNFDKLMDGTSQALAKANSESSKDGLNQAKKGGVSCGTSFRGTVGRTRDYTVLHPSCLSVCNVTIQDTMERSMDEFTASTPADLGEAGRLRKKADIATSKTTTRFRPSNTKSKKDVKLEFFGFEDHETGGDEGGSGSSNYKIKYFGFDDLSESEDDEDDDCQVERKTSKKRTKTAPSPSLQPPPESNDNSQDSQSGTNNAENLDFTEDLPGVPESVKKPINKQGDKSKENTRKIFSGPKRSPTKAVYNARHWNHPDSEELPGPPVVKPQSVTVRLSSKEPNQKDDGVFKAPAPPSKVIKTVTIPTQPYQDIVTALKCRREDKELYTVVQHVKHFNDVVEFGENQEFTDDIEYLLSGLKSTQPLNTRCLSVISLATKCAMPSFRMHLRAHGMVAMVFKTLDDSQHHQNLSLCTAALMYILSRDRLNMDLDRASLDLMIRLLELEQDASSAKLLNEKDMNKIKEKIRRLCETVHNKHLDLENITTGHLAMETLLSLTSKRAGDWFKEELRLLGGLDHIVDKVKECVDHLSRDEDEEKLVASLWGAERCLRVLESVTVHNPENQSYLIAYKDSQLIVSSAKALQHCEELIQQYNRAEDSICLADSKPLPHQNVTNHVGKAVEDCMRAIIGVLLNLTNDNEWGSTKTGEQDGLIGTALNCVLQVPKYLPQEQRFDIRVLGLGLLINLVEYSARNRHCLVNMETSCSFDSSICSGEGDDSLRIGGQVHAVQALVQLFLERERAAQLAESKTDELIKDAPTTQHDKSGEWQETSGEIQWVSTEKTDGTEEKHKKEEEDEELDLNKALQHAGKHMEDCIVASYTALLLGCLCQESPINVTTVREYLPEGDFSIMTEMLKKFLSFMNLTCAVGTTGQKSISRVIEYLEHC
Assay: IA-DTB cysteine engagement
Assay type: binding
Conditions: 22Rv1 cells, 20 μM probe, 1 h, relative to DMSO
Method in brief: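 Cells were treated in situ with electrophilic probes, then lysed, and the lysates (2 mg/mL protein) were labeled with IA-DTB for 1 h at ambient temperature. After reduction, alkylation and trypsin digestion, labeled peptides were streptavidin-enriched, TMT-labeled and fractionated. Engagement ratios are probe vs DMSO reporter intensities, averaged across replicates.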

% engagement WAPL_C1133 [%]	SMILES
46	C=CC(=O)N1C[C@H](c2ccc(Br)cc2)[C@H]1C(=O)Nc1cccc2cccnc12 [MY-3B, (2S,3S)-1-acryloyl-3-(4-bromophenyl)-N-(quinolin-8-yl)azetidine-2-carboxamide]
34	C=CC(=O)N1C[C@H](c2ccc(Br)cc2)[C@@H]1C(=O)Nc1cccc2cccnc12 [MY-1B, (2R,3S)-1-acryloyl-3-(4-bromophenyl)-N-(quinolin-8-yl)azetidine-2-carboxamide]
78.5	C=CC(=O)N1C[C@H](c2ccc(Br)cc2)[C@H]1C(=O)Nc1cccc2cccnc12 [MY-3A, (2S,3S)-1-acryloyl-3-(4-bromophenyl)-N-(quinolin-8-yl)azetidine-2-carboxamide]
18	C=CC(=O)N1C[C@@H](c2ccc(Br)cc2)[C@H]1C(=O)Nc1cccc2cccnc12 [MY-1A, (2S,3R)-1-acryloyl-3-(4-bromophenyl)-N-(quinolin-8-yl)azetidine-2-carboxamide]
